Measurements published in patent US4027017A, “Method of treating alcoholism” (Chugai Seiyaku Kabushiki Kaisha, priority 1974, dated 1977).
“And” between values parts separate entries of the source, which are not always exact repeats. Equal entries are not always repeated. “Also recorded” adds a separate entry of the source.

Key:
[1] = system: Sprague Dawley strain male rats; assay: Behaviour and righting reflex after ethanol, UDPGA.3Na given 30 minutes after ethanol; format: in vivo; settings: 160 mg/kg oral 30 min after ethanol 6 g/kg
Procedure: The Sprague Dawley strain male rats weighing 160±30 g which were fed rat food commercially available as CLEA CE-2 and prevented from eating food for 12 hours just before the experiment was started. Each rat was administered with ethanol as a 50% aqueous solution in a dose of 6 g/kg.body weight. Thirty minutes after the administration, the rat was orally administered with a suspension of trisodium uridine-5'-diphosphate glucuronic acid (UDPGA.3Na) in corn oil in a dose of 160 mg/kg.body weight based on UDPGA.3Na. The behavior of the rat was observed over 24 hours after the last administration.

alcohol level in blood = assay: Measurement of alcohol level in blood (alcoholic dehydrogenase method) and behavior; format: in vivo, Sprague Dawley strain female rats; settings: 30 min before ethanol 6 g/kg
Procedure: Measurement of Alcohol Level in Blood
In this Example, Sprague Dawley strain female rats (weighing 150±20 g) divided into groups of 9-12 members each were used.
After abstention from food overnight each rat was orally administered trisodium uridine-5'-diphosphate glucuronic acid (UDPGA.3Na) in the form of a physiological saline solution in a dose of 160 mg/kg.body weight as an effective ingredient and, 30 minutes after the administration, the rat was administered with ethanol in a dose of 6 g/kg body weight. Four hours and thirty minutes after the administration of ethanol, the rat was etherized, and blood was sampled from its heart to determine alcohol level in the blood by a alcoholic dehydrogenase method. For control, a physiological saline solution was used instead of the UDPGA.3Na solution.

[2] = system: Sprague Dawley strain male rats; assay: Behaviour and righting reflex after ethanol, UDPGA.3Na given 30 minutes before ethanol; format: in vivo; settings: 160 mg/kg oral 30 min before ethanol 6 g/kg
Procedure: The Sprague Dawley strain male rats weighing 260±30 g which had been fed rat food commerically available as CLEA CE-2 and prevented from eating food for 12 hours just before the experiment were divided into groups each of 10-13 members each. Each rat was orally administered trisodium uridine-5'-diphosphate glucuronic acid (UDPGA.3Na) in the form of a suspension in corn oil in an amount 160 mg/kg.body weight. Thirty minutes after the administration, ethanol as a 50% aqueous solution was orally administered in a dose of 6 g/kg.body weight and then behavior of the rat was observed over 24 hours.

neutral lipid in liver = assay: Inhibiting action for accumulation of neutral lipid in liver (ethanol-treated rats; Van Handel and Zilver-Smit method); format: in vivo, Sprague Dawley strain male rats; settings: 160 mg/kg oral in corn oil, 30 min before ethanol 6 g/kg oral; liver taken 24 hours after
Procedure: Inhibiting Action for Accumulation of Neutral Lipid in Liver […] Each rat was orally administered with trisodium uridine-5'-diphosphate glucuronic acid (UDPGA-3.Na) as a suspension in corn oil in a dose of 160 mg/kg.body weight. Thirty minutes after the administration, each rat was orally administered with ethanol as a 50% aqueous solution in a dose of 6 g/kg.body weight and, 24 hours after the administration, the liver was taken out and an amount of neutral lipid contained therein was determined by the Van Handel and Zilver-Smit method. For control, a glucose aqueous solution having a caloric content equivalent to the same amount of ethanol was used instead of ethanol.

## O=C(O)[C@H]1O[C@H](OP(=O)(O)OP(=O)(O)OC[C@H]2O[C@@H](n3ccc(=O)[nH]c3=O)[C@H](O)[C@@H]2O)[C@H](O)[C@@H](O)[C@@H]1O [UDPGA.3Na, trisodium uridine-5'-diphosphate glucuronic acid]
[1]; 3 hrs. after alcohol
  Behaviour: Deep Sleep: 2 heads
  Behaviour: Lying Flat: 5 heads
  Behaviour: Normal Walking: 3 heads
  Righting Reflex +: 7 heads
  Righting Reflex -: 3 heads
[1]; 6 hrs. after alcohol
  Behaviour: Deep Sleep: 2 heads
  Behaviour: Lying Flat: 6 heads
  Behaviour: Normal Walking: 2 heads
  Righting Reflex +: 7 heads
  Righting Reflex -: 3 heads
[1]; 9 hrs. after alcohol
  Behaviour: Deep Sleep: 1 heads
  Behaviour: Lying Flat: 3 heads
  Behaviour: Normal Walking: 6 heads
  Righting Reflex +: 8 heads
  Righting Reflex -: 2 heads
[1]; 12 hrs. after alcohol
  Behaviour: Deep Sleep: 0 heads
  Behaviour: Lying Flat: 2 heads
  Behaviour: Normal Walking: 8 heads
  Righting Reflex +: 10 heads
  Righting Reflex -: 0 heads
[1]; 18 hrs. after alcohol
  Behaviour: Deep Sleep: 0 heads
  Behaviour: Lying Flat: 0 heads
  Behaviour: Normal Walking: 10 heads
  Righting Reflex +: 10 heads
  Righting Reflex -: 0 heads
Alcohol level in blood; 160 mg/kg oral in physiological saline, blood 4 h 30 min after ethanol, Confidence Limits: 98%
  Ethanol level in Blood, Average: 1.59 ± 0.93 mg/mL
Alcohol level in blood; 160 mg/kg oral in physiological saline, blood 4 h 30 min after ethanol, test animals 1-12 in block order
  Ethanol level in Blood (individual test animals): 2.21 mg/mL and 1.65 mg/mL and 1.82 mg/mL and 1.41 mg/mL and 1.19 mg/mL and 2.15 mg/mL and 0.85 mg/mL and 0.37 mg/mL and 0.63 mg/mL and 1.79 mg/mL and 2.19 mg/mL and 2.82 mg/mL
Alcohol level in blood; 160 mg/kg oral in physiological saline, test animals 1-12 in block order
  Behavior (individual test animals): lying flat; also recorded: normal walking; also recorded: deep sleep
Alcohol level in blood; 160 mg/kg oral, blood 4 h 30 min after ethanol
  alcohol level in blood in comparison with the control: significantly lowered
[2]; 3 hrs. after alcohol
  Behaviour: Deep Sleep: 2 heads
  Behaviour: Lying Flat: 4 heads
  Behaviour: Normal Walking: 4 heads
  Righting Reflex +: 7 heads
  Righting Reflex -: 3 heads
[2]; 6 hrs. after alcohol
  Behaviour: Deep Sleep: 2 heads
  Behaviour: Lying Flat: 6 heads
  Behaviour: Normal Walking: 2 heads
  Righting Reflex +: 7 heads
  Righting Reflex -: 3 heads
[2]; 9 hrs. after alcohol
  Behaviour: Deep Sleep: 1 heads
  Behaviour: Lying Flat: 6 heads
  Behaviour: Normal Walking: 3 heads
  Righting Reflex +: 9 heads
  Righting Reflex -: 1 heads
[2]; 12 hrs. after alcohol
  Behaviour: Deep Sleep: 0 heads
  Behaviour: Lying Flat: 0 heads
  Behaviour: Normal Walking: 10 heads
  Righting Reflex +: 10 heads
  Righting Reflex -: 0 heads
[2]; 18 hrs. after alcohol
  Behaviour: Deep Sleep: 0 heads
  Behaviour: Lying Flat: 0 heads
  Behaviour: Normal Walking: 10 heads
  Righting Reflex +: 10 heads
  Righting Reflex -: 0 heads
Neutral lipid in liver
  % inhibition (neutral lipid in liver): 59.7%
  Neutral Lipid in Liver: 23.05 ± 10.72 mg/g
